Results on 32 compounds are retold here after ChEMBL document CHEMBL1268896, “Development of the next generation of HIV-1 integrase inhibitors: pyrazolone as a novel inhibitor scaffold” (Bioorg Med Chem Lett, 2010).

In experiment [1] the target is T1, Human immunodeficiency virus type 1 integrase (Human immunodeficiency virus 1, UniProt Q7ZJM1). The experiment in a line: Inhibition of HIV1 integrase strand transfer activity.
Experiment [2] concerns the target T1, Human immunodeficiency virus type 1 integrase. The experiment in a line: Inhibition of HIV1 integrase 3' processing activity.

T1 sequence (Q7ZJM1 whole entry): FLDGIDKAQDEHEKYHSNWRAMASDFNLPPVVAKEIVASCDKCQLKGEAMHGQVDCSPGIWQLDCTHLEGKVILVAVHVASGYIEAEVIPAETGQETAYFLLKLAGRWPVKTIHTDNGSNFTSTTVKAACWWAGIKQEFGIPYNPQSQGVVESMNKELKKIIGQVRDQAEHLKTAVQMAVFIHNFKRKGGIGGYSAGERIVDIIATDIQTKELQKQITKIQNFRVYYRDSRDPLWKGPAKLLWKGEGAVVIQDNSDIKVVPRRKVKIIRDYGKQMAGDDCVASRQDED

For `COc1ccc(/C=C2\C(=O)N(c3nc4ccccc4s3)N=C2C(F)(F)F)cc1OCc1ccc(F)cc1`, the IC50 (commonly the concentration that inhibits the measured activity by half) in experiment [1] is 27 µM; in experiment [2] it was greater than 100 µM.
Take `COc1ccc(/C=C2\C(=O)N(c3cccc(Cl)c3)N=C2C(F)(F)F)cc1OCc1ccc(F)cc1`: the IC50 in experiment [1] is 30 µM; in experiment [2], 88 µM.
On the same counts, the results for `O=C1/C(=C\c2ccc(O)c(OCc3ccc(F)cc3)c2)C(C(F)(F)F)=NN1c1cccc(Br)c1` are 22 µM and greater than 100 µM.
Taken in the same sequence, the figures for `COc1ccc(/C=C2\C(=O)N(c3ccc(C(=O)O)cc3)N=C2C(F)(F)F)cc1OCc1ccc(F)cc1` were 41 µM and greater than 100 µM.
Taken in the same sequence, the figures for `COc1ccc(/C=C2\C(=O)N(c3ccccc3)N=C2C(F)(F)F)cc1OCc1ccc(F)cc1` were greater than 100 µM and greater than 100 µM.
As to `COc1ccc(/C=C2\C(=O)N(c3cccc(Br)c3)N=C2C(F)(F)F)c(OC)c1OC`, the IC50 in experiment [1] and in experiment [2] was greater than 100 µM throughout.
For `COc1ccc(/C=C2\C(=O)N(c3cccc(Br)c3)N=C2OC(C)=O)cc1OCc1ccc(F)cc1`, the IC50 in experiment [1] is 100 µM; in experiment [2], greater than 100 µM.
On the same counts, the results for `COc1ccc(/C=C2\C(=O)N(c3cccc(F)c3)N=C2C(F)(F)F)cc1OCc1ccc(F)cc1` are 60 µM and greater than 100 µM.
Turning to `COc1ccc(/C=C2\C(=O)N(c3cccc([N+](=O)[O-])c3)N=C2C(=O)O)cc1Cc1ccc(F)cc1`, the IC50 in experiment [1] came out at 11 µM; in experiment [2], 15 µM.
Taken in the same sequence, the figures for `COc1ccc(/C=C2\C(=O)N(c3ccc(NS(C)(=O)=O)cc3)N=C2C(F)(F)F)cc1OCc1ccc(F)cc1` were greater than 100 µM and greater than 100 µM.
Consider `COc1ccc(/C=C2\C(=O)N(c3cccc(-c4ccccc4)c3)N=C2C(F)(F)F)cc1OCc1ccc(F)cc1`, for which the values for the IC50 in experiment [1] and in experiment [2] were 16 µM and greater than 100 µM, respectively.
Taken in the same sequence, the figures for `O=C(O)C1=NN(c2cccc([N+](=O)[O-])c2)C(=O)/C1=C\c1ccc(OCc2ccc(F)cc2)c(O)c1` were 3 µM and 21 µM.
Taken in the same sequence, the figures for `COc1ccc(/C=C2\C(=O)N(c3cc(Cl)cc(Cl)c3)N=C2C(F)(F)F)cc1OCc1ccc(F)cc1` were 12 µM and greater than 100 µM.
Taken in the same sequence, the figures for `COc1ccc(/C=C2\C(=O)N(c3cccc(I)c3)N=C2C(F)(F)F)cc1OCc1ccc(F)cc1` were 35 µM and greater than 100 µM.
As to `O=C(O)C1=NN(c2cccc([N+](=O)[O-])c2)C(=O)/C1=C\c1ccc(O)c(OCc2ccc(F)cc2)c1`, the IC50 in experiment [1] is 10 µM; in experiment [2], 95 µM.
Take `COc1ccc(/C=C2\C(=O)N(c3cccc(Br)c3)N=C2C(=O)O)cc1OCc1ccc(F)cc1`: the IC50 in experiment [1] worked out at 19 µM; in experiment [2], 55 µM.
On to `COc1ccc(/C=C2\C(=O)N(c3cccc([N+](=O)[O-])c3)N=C2C(=O)O)cc1OCc1ccc(F)cc1`, for which the IC50 in experiment [1] turned out to be 14 µM; in experiment [2] it was 60 µM.
Taken in the same sequence, the figures for `COc1cc(/C=C2\C(=O)N(c3cccc(Br)c3)N=C2C(F)(F)F)cc(OC)c1OC` were 15 µM and 61 µM.
For `COc1ccc(/C=C2\C(=O)N(c3ccc(Br)cc3)N=C2C(F)(F)F)cc1OCc1ccc(F)cc1`, the 50% inhibitory concentration (IC50) in experiment [1] was determined as 25 µM; in experiment [2], 82 µM.
On the same counts, the results for `COc1ccc(/C=C2\C(=O)N(c3cccc(C)c3)N=C2C(F)(F)F)cc1OCc1ccc(F)cc1` are greater than 100 µM and greater than 100 µM.
Taken in the same sequence, the figures for `COc1ccc(/C=C2\C(=O)N(c3ccc(I)cc3)N=C2C(F)(F)F)cc1OCc1ccc(F)cc1` were 69 µM and greater than 100 µM.
On the same counts, the results for `COc1ccc(/C=C2\C(=O)N(c3cccc(Br)c3)N=C2C(F)(F)F)cc1OCc1ccc(F)cc1` are 40 µM and 83 µM.
In the case of `CCC(=O)OC1=NN(c2cccc(Br)c2)C(=O)/C1=C\c1ccc(OC)c(OCc2ccc(F)cc2)c1`, the IC50 in experiment [1] was 88 µM; in experiment [2] it was greater than 100 µM.
On the same counts, the results for `COc1ccc(/C=C2\C(=O)N(c3cccc(Br)c3)N=C2C(F)(F)F)cc1OCc1cccc(Cl)c1F` are 30 µM and 50 µM.
`COc1ccc(/C=C2\C(=O)N(c3cccc([N+](=O)[O-])c3)N=C2C(F)(F)F)cc1OCc1ccc(F)cc1`: the IC50 in experiment [1] worked out at 19 µM; in experiment [2], 52 µM.
On the same counts, the results for `COc1ccc(/C=C2\C(=O)N(c3cccc(C(F)(F)F)c3)N=C2C(F)(F)F)cc1OCc1ccc(F)cc1` are 24 µM and 90 µM.
On the same counts, the results for `COc1ccc(/C=C2\C(=O)N(c3cccc(Br)c3)N=C2C(F)(F)F)cc1OC` are 34 µM and 89 µM.
On the same counts, the results for `COc1ccc(/C=C2\C(=O)N(c3cccc(Br)c3)N=C2COC(C)=O)cc1OCc1ccc(F)cc1` are 57 µM and greater than 100 µM.
Turning to `COc1ccc(/C=C2\C(=O)N(c3cccc(Br)c3)N=C2C)cc1OCc1ccc(F)cc1`, the IC50 in experiment [1] and in experiment [2] was greater than 100 µM in each case.
As for `COc1ccc(/C=C2\C(=O)N(c3cccc(Br)c3)N=C2C(F)(F)F)cc1Cc1ccc(F)cc1`, the values for the IC50 in experiment [1] and in experiment [2] were 11 µM and 21 µM, respectively.
On the same counts, the results for `COc1ccc(/C=C2\C(=O)N(c3cccc(Br)c3)N=C2NC(=O)C(F)(F)F)cc1OCc1ccc(F)cc1` are greater than 100 µM and greater than 100 µM.
Taken in the same sequence, the figures for `CCC1=NN(c2cccc(Br)c2)C(=O)/C1=C\c1ccc(OC)c(OCc2ccc(F)cc2)c1` were greater than 100 µM and greater than 100 µM.
